Source: PubChem BioAssay (NCI)
Where “and” joins values, the source holds several entries; their conditions need not be identical. Identical values can stand only once.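 Assay format: 96-well plates, 48-hour exposure. At the GI50, growth is halved. Definition used: TGI = concentration required for complete inhibition of growth.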

System: IGROV1 ovarian
Assay: NCI tumour cell line growth inhibition, 48 h

SMILES	TGI	GI50
C/C(=C\CBr)CCC(Br)C(C)(C)Br (centres undefined)	> 100 µM	–
Oc1ccc(Cc2cc(Cc3ccc(O)cc3)cc(Cc3ccc(O)cc3)c2)cc1	> 50 µM	–
CC(=O)c1c2c(c3ccccc3c1O)O[C@@H]1OCC[C@H]21	> 100 µM	–
C[C@]12CC[C@H](O)CC1=CC[C@@H]1[C@@H]2CC[C@]2(C)C(=N/N)/C(=N\O)C[C@@H]12	75.7 µM	–
CC(=O)Oc1cccc2c1C(=O)CCCC2	> 100 µM	–
O=C(c1ccccn1)C1(N2CCCCC2)CCCCC1	> 100 µM	–
CCN(CC)C(=S)N/N=C/c1cc([N+](=O)[O-])ccc1O	16.7 µM	–
Cc1ccc(NC(=O)c2ccc(OP(=O)(O)Nc3ccc(C)cc3)cc2)cc1	> 100 µM	–
Cc1ccc(NC(=O)CC2Sc3ccccc3NC2=O)cc1C (centres undefined)	> 100 µM	–
Cc1ccnc(NS(=O)(=O)c2ccc(N=[N+]=[N-])cc2)n1	> 100 µM	–
Cc1ccccc1C(=N)c1ccccc1Cc1cccc2ccccc12	> 100 µM	–
CCC(=O)NC(Nc1cc(C)on1)(C(F)(F)F)C(F)(F)F	> 100 µM	–
Cc1ccccc1OC(C)C(=O)NN1C(=O)CSC1c1ccccc1 (centres undefined)	> 100 µM	–
O=C1C=C[C@@H](COC2OC(CO)C(O)C(O)C2O)O1 (some centres undefined)	34.9 µM and 83.1 µM	14.2 µM
CC(C)=CCC[C@@H](C)c1c(O)c(O)c(C)c2nccnc12	> 81.5 µM	–
O=C(OCc1ccccc1)N1CCNCCN(C(=O)OCc2ccccc2)CCNCC1	> 100 µM	–
COC(=O)C1=C(C(=O)OC)SC(=C2SCSC3=C2SC(C(=O)OC)=C(C(=O)OC)C32SC3=C(CCCC3)S2)S1	> 100 µM	–
COc1nncc2[nH]c(-c3ccccc3)cc12	> 100 µM	–
O=S(=O)(c1ccccc1)c1cccc2c1NCCC2	> 100 µM	–
COP(=O)(OC)C1=c2c(C)noc2=C2C=COC2C1=O (centres undefined)	> 100 µM	–
CCOC(=O)N1CCN(Cc2cc(=O)n3ccc(C)cc3n2)CC1	> 100 µM	–
COc1cccc(C2SC(N)=Nc3c2c(C)nn3C(=O)c2ccccc2O)c1 (centres undefined)	> 10 µM	–
N#CC(NCc1cccc(CNC(C#N)c2ccccc2)c1)c1ccccc1 (centres undefined)	41.8 µM	–

System: DMS 273 small cell lung
Assay: NCI tumour cell line growth inhibition, 48 h

SMILES	GI50	TGI
COc1ccc2[nH]cc(/C=C(/C)c3ccncc3)c2c1	2.37 µM	19.6 µM and 10.5 µM
COC(=O)[C@@H](O)[C@](O)(CCC(C)C)C(=O)O[C@@H]1C(OC)=C[C@]23CCCN2CCc2cc4c(cc2[C@H]13)OCO4	–	3.47 µM
COc1ccc2cc1Oc1ccc(cc1)C[C@H]1c3cc(c(OC)cc3CCN1C)Oc1c(O)c(OC)cc3c1[C@H](C2)N(C)CC3	–	40.1 µM
Cc1ccc(NC(=O)CC2Sc3ccccc3NC2=O)cc1C (centres undefined)	–	> 100 µM
O=C1C=C[C@@H](COC2OC(CO)C(O)C(O)C2O)O1 (some centres undefined)	2.44 µM	13.9 µM and 39.6 µM

System: SF-539 CNS
Assay: NCI tumour cell line growth inhibition, 48 h

SMILES	GI50	TGI
COc1ccc2[nH]cc(/C=C(/C)c3ccncc3)c2c1	4.46 µM	19.9 µM and > 100 µM
COC(=O)[C@@H](O)[C@](O)(CCC(C)C)C(=O)O[C@@H]1C(OC)=C[C@]23CCCN2CCc2cc4c(cc2[C@H]13)OCO4	–	3.16 µM
CCCCCC1=CC(=O)C1(Cl)Cl	–	38.9 µM
CC(=O)N1C(C(=O)NC2CCCCC2)CSC1c1ccccc1 (centres undefined)	–	> 100 µM
CC1(C)O[C@H]2OC(CO[Si](C)(C)C(C)(C)C)C(N=[N+]=[N-])[C@H]2O1 (some centres undefined)	–	36 µM
O=[N+]([O-])c1ccc(Cl)cc1N/N=C/c1ccnc2ccccc12	–	49.5 µM
CC(C)c1cc2c(cc1S(=O)(=O)O)[C@@]1(C)CCC[C@@](C)(C(=O)O)C1CC2 (some centres undefined)	–	> 100 µM
COc1ccc2cc1Oc1ccc(cc1)C[C@H]1c3cc(c(OC)cc3CCN1C)Oc1c(O)c(OC)cc3c1[C@H](C2)N(C)CC3	–	41.6 µM
C/C(=C\CBr)CCC(Br)C(C)(C)Br (centres undefined)	–	> 100 µM
Oc1ccc(Cc2cc(Cc3ccc(O)cc3)cc(Cc3ccc(O)cc3)c2)cc1	–	> 50 µM
CC(=O)c1c2c(c3ccccc3c1O)O[C@@H]1OCC[C@H]21	–	> 100 µM
C[C@]12CC[C@H](O)CC1=CC[C@@H]1[C@@H]2CC[C@]2(C)C(=N/N)/C(=N\O)C[C@@H]12	–	> 100 µM
CC(=O)Oc1cccc2c1C(=O)CCCC2	–	> 100 µM
O=C(c1ccccn1)C1(N2CCCCC2)CCCCC1	–	> 100 µM
CCN(CC)C(=S)N/N=C/c1cc([N+](=O)[O-])ccc1O	–	28.3 µM
Cc1ccc(NC(=O)c2ccc(OP(=O)(O)Nc3ccc(C)cc3)cc2)cc1	–	> 100 µM

SMILES	GI50	TGI
Cc1ccc(NC(=O)CC2Sc3ccccc3NC2=O)cc1C (centres undefined)	–	> 100 µM
Cc1ccnc(NS(=O)(=O)c2ccc(N=[N+]=[N-])cc2)n1	–	> 100 µM
Cc1ccccc1C(=N)c1ccccc1Cc1cccc2ccccc12	–	35.4 µM
CCC(=O)NC(Nc1cc(C)on1)(C(F)(F)F)C(F)(F)F	–	> 100 µM
Cc1ccccc1OC(C)C(=O)NN1C(=O)CSC1c1ccccc1 (centres undefined)	–	> 100 µM
O=C1C=C[C@@H](COC2OC(CO)C(O)C(O)C2O)O1 (some centres undefined)	–	17.6 µM and 18.4 µM
CC(C)=CCC[C@@H](C)c1c(O)c(O)c(C)c2nccnc12	–	60.2 µM
O=C(OCc1ccccc1)N1CCNCCN(C(=O)OCc2ccccc2)CCNCC1	–	29.2 µM
COC(=O)C1=C(C(=O)OC)SC(=C2SCSC3=C2SC(C(=O)OC)=C(C(=O)OC)C32SC3=C(CCCC3)S2)S1	–	> 100 µM
COc1nncc2[nH]c(-c3ccccc3)cc12	–	> 100 µM
O=S(=O)(c1ccccc1)c1cccc2c1NCCC2	–	> 100 µM
COP(=O)(OC)C1=c2c(C)noc2=C2C=COC2C1=O (centres undefined)	–	> 100 µM
CCOC(=O)N1CCN(Cc2cc(=O)n3ccc(C)cc3n2)CC1	–	> 100 µM
COc1cccc(C2SC(N)=Nc3c2c(C)nn3C(=O)c2ccccc2O)c1 (centres undefined)	–	> 2.64 µM
N#CC(NCc1cccc(CNC(C#N)c2ccccc2)c1)c1ccccc1 (centres undefined)	–	26.1 µM

System: NCI-H226 lung
Assay: NCI tumour cell line growth inhibition, 48 h

SMILES	GI50	TGI
COc1ccc2[nH]cc(/C=C(/C)c3ccncc3)c2c1	7.63 µM	38.6 µM and > 100 µM
COC(=O)[C@@H](O)[C@](O)(CCC(C)C)C(=O)O[C@@H]1C(OC)=C[C@]23CCCN2CCc2cc4c(cc2[C@H]13)OCO4	–	6.31 µM
CCCCCC1=CC(=O)C1(Cl)Cl	–	41.5 µM
CC(=O)N1C(C(=O)NC2CCCCC2)CSC1c1ccccc1 (centres undefined)	–	> 100 µM
CC1(C)O[C@H]2OC(CO[Si](C)(C)C(C)(C)C)C(N=[N+]=[N-])[C@H]2O1 (some centres undefined)	–	38.7 µM
O=[N+]([O-])c1ccc(Cl)cc1N/N=C/c1ccnc2ccccc12	–	> 100 µM
CC(C)c1cc2c(cc1S(=O)(=O)O)[C@@]1(C)CCC[C@@](C)(C(=O)O)C1CC2 (some centres undefined)	–	> 100 µM
COc1ccc2cc1Oc1ccc(cc1)C[C@H]1c3cc(c(OC)cc3CCN1C)Oc1c(O)c(OC)cc3c1[C@H](C2)N(C)CC3	–	63 µM
C/C(=C\CBr)CCC(Br)C(C)(C)Br (centres undefined)	–	> 100 µM
Oc1ccc(Cc2cc(Cc3ccc(O)cc3)cc(Cc3ccc(O)cc3)c2)cc1	–	> 50 µM
